{"source": "patent US20240109881A1", "about": "“Heteroaryl Compounds as Ligand Directed Degraders of IRAK4” (Bristol-Myers Squibb Company, priority 2022, published 2024)", "target": "T1, IRAK4 (Homo sapiens, UniProt Q9NWZ3)", "T1 construct": "endogenous in cells; host or cells: THP-1 cells", "T1 sequence (Q9NWZ3 1-460)": "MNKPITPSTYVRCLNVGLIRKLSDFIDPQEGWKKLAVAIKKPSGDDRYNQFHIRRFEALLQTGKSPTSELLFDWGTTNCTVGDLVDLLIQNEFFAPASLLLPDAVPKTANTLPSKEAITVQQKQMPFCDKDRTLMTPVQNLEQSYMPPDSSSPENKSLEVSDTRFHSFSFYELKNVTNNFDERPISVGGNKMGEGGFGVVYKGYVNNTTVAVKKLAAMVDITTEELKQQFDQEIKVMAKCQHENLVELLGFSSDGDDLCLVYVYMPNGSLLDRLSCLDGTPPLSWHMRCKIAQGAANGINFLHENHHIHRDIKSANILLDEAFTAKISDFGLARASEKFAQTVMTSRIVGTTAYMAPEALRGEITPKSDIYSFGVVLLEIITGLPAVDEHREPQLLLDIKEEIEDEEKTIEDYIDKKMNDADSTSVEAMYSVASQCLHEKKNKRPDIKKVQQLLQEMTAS", "test": "LVL THP1 HTRF (THP1 Homogeneous Time Resolved Fluorescence)", "type": "cell-based", "conditions": "THP1 cells, 18 h incubation with compound; for DC50: read-out: LVL THP1 HTRF EC50", "summary_of_the_method": "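THP-1 cells in phenol red-free RPMI with 10% FBS were dosed with compound (20 nL in DMSO) for 18 h at 37° C. After 2 h lysis, IRAK4 was detected with anti-IRAK4-d2/anti-IRAK4-K HTRF antibodies for 18 h at room temperature and read at 665/615 nm; a parallel CTG plate was run.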"}
{"compound": "C[C@H](C#N)Nc1cc(-n2ncc3cc(C#N)cnc32)ncc1-n1cc([C@H]2CC[C@H](CCN3CC[C@H]4[C@@H]3CCN4c3ccc(N4CCC(=O)NC4=O)c(Cl)c3)CC2)nn1", "note": "(single isomer, unassigned) [P-464]", "values": [{"measurement": "LVL THP1 HTRF YMIN", "result": "−7.1", "unit": "%"}, {"measurement": "DC50", "result": 0.7, "unit": "nM"}]}
{"compound": "Cc1cc(N2CC[C@H]3[C@@H]2CCN3CC[C@H]2CC[C@H](c3cn(-c4cnc(-n5ncc6cc(C#N)cnc65)cc4N[C@H](C)C#N)nn3)CC2)ccc1N1CCC(=O)NC1=O", "note": "(single isomer, unassigned) [P-470]", "values": [{"measurement": "LVL THP1 HTRF YMIN", "result": 10.6, "unit": "%"}, {"measurement": "DC50", "result": 29.7, "unit": "nM"}]}
{"compound": "Cc1cc(N2CC[C@H]3[C@@H]2CCN3CC[C@H]2CC[C@H](c3cn(-c4cnc(-n5ncc6cc(C#N)cnc65)cc4N[C@H](C)C#N)nn3)CC2)ccc1N1CCC(=O)NC1=O", "note": "(single isomer, unassigned) [P-474]", "values": [{"measurement": "LVL THP1 HTRF YMIN", "result": 5.0, "unit": "%"}, {"measurement": "DC50", "result": 70, "unit": "nM"}]}
{"compound": "C[C@H](C#N)Nc1cc(-n2ncc3cc(C#N)cnc32)ncc1-n1cc([C@H]2CC[C@H](CCN3CC[C@H]4[C@@H]3CCN4c3ccc(N4CCC(=O)NC4=O)c(Cl)c3)CC2)nn1", "note": "(single isomer, unassigned) [P-478]", "values": [{"measurement": "LVL THP1 HTRF YMIN", "result": 17.1, "unit": "%"}, {"measurement": "DC50", "result": 161, "unit": "nM"}]}
{"compound": "C[C@H](C#N)Nc1cc(-n2ncc3cc(C#N)cnc32)ncc1-n1cc([C@H]2CC[C@H](CCN3CC[C@H]4[C@@H]3CCN4c3ccc(N4CCC(=O)NC4=O)c(F)c3)CC2)nn1", "note": "(single isomer, unassigned) [P-480]", "values": [{"measurement": "LVL THP1 HTRF YMIN", "result": 0.8, "unit": "%"}, {"measurement": "DC50", "result": 26, "unit": "nM"}]}
{"compound": "C[C@H](C#N)Nc1cc(-n2ncc3cc(C#N)c(N)nc32)ncc1-n1cc([C@H]2CC[C@H](CCN3CC[C@H]4[C@@H]3CCN4c3ccc([C@@]4(C)CCC(=O)NC4=O)cc3)CC2)nn1", "note": "(single isomer, unassigned) [P-487]", "values": [{"measurement": "LVL THP1 HTRF YMIN", "result": 2.7, "unit": "%"}, {"measurement": "DC50", "result": 8, "unit": "nM"}]}
{"compound": "C[C@H](C#N)Nc1cc(-n2ncc3cc(C#N)cnc32)ncc1C(=O)N[C@H]1CC[C@@H](CCN2CC[C@H]3[C@@H]2CCN3c2ccc(N3CCC(=O)NC3=O)c(Cl)c2)CC1", "note": "(single isomer, unassigned) [P-488]", "values": [{"measurement": "LVL THP1 HTRF YMIN", "result": 41.7, "unit": "%"}, {"measurement": "DC50", "result": 4440, "unit": "nM"}]}
{"compound": "C[C@H](C#N)Nc1cc(-n2ncc3cc(C#N)cnc32)ncc1-n1cc([C@H]2CC[C@H](CCN3CCC(c4ccc(N5CCC(=O)NC5=O)cc4)C3)CC2)nn1", "note": "(single isomer, unassigned) [P-491]", "values": [{"measurement": "LVL THP1 HTRF YMIN", "result": 14.9, "unit": "%"}, {"measurement": "DC50", "result": 156, "unit": "nM"}]}
{"compound": "C[C@H](C#N)Nc1cc(-n2ncc3cc(C#N)cnc32)ncc1C(=O)N[C@H]1CC[C@H](CCN2CC[C@H]3[C@@H]2CCN3c2ccc([C@@]3(C)CCC(=O)NC3=O)cc2)CC1", "note": "(single isomer, unassigned) [P-492]", "values": [{"measurement": "LVL THP1 HTRF YMIN", "result": "−0.2", "unit": "%"}, {"measurement": "DC50", "result": 35, "unit": "nM"}]}
{"compound": "C[C@H](C#N)Nc1cc(-n2ncc3cc(C#N)cnc32)ncc1-n1cc([C@H]2CC[C@H](CCN3CC[C@H]4[C@@H]3CN4c3ccc(N4CCC(=O)NC4=O)cc3)CC2)nn1", "note": "(single isomer, unassigned) [P-494]", "values": [{"measurement": "LVL THP1 HTRF YMIN", "result": 21.2, "unit": "%"}, {"measurement": "DC50", "result": 110, "unit": "nM"}]}
{"compound": "C[C@H](C#N)Nc1cc(-n2ncc3cc(C#N)cnc32)ncc1-n1cc([C@H]2CC[C@H](CCN3CC[C@@H]4[C@H]3CN4c3ccc(N4CCC(=O)NC4=O)cc3)CC2)nn1", "note": "(single isomer, unassigned) [P-495]", "values": [{"measurement": "LVL THP1 HTRF YMIN", "result": 2.7, "unit": "%"}, {"measurement": "DC50", "result": 110, "unit": "nM"}]}
{"compound": "C[C@H](C#N)Nc1cc(-n2ncc3cc(C#N)cnc32)ncc1-n1cc([C@H]2CC[C@H](CCN3CCC(c4ccc(N5CCC(=O)NC5=O)cc4)C3)CC2)nn1", "note": "(single isomer, unassigned) [P-497]", "values": [{"measurement": "LVL THP1 HTRF YMIN", "result": 13.6, "unit": "%"}, {"measurement": "DC50", "result": 239, "unit": "nM"}]}
{"compound": "C[C@H](C#N)Nc1cc(Nc2ncc(C#N)cc2Cl)ncc1-n1cc([C@H]2CC[C@H](CCN3CC[C@H]4[C@@H]3CCN4c3ccc(N4CCC(=O)NC4=O)cc3)CC2)nn1", "note": "(single isomer, unassigned) [P-500]", "values": [{"measurement": "LVL THP1 HTRF YMIN", "result": "−0.52", "unit": "%"}, {"measurement": "DC50", "result": 43.4, "unit": "nM"}]}
{"compound": "C[C@H](C#N)Nc1cc(Nc2ncc(C#N)cc2Cl)ncc1-n1cc([C@H]2CC[C@H](CCN3CCN(c4ccc(N5CCC(=O)NC5=O)cc4)[C@@H]4COC[C@@H]43)CC2)nn1", "note": "(single isomer, unassigned) [P-503]", "values": [{"measurement": "LVL THP1 HTRF YMIN", "result": 82.16, "unit": "%"}, {"measurement": "DC50", "result": 1000, "unit": "nM"}]}
{"compound": "C[C@H](C#N)Nc1cc(-n2ncc3cc(C#N)cnc32)ncc1-n1cc(C2CCC(CCN3CCN(c4ccc(N5CCC(=O)NC5=O)cc4)[C@@H]4CCC[C@@H]43)CC2)nn1", "note": "(single isomer, unassigned) [P-505]", "values": [{"measurement": "LVL THP1 HTRF YMIN", "result": 9.83, "unit": "%"}, {"measurement": "DC50", "result": 197, "unit": "nM"}]}
{"compound": "C[C@H](C#N)Nc1cc(Nc2ncc(C#N)cc2Cl)ncc1-n1cc([C@H]2CC[C@H](CCN3CCN(c4ccc(N5CCC(=O)NC5=O)cc4)[C@@H]4CCC[C@@H]43)CC2)nn1", "note": "(single isomer, unassigned) [P-506]", "values": [{"measurement": "LVL THP1 HTRF YMIN", "result": 65.39, "unit": "%"}, {"measurement": "DC50", "result": 1000, "unit": "nM"}]}
{"compound": "C[C@H](C#N)Nc1cc(Nc2ncc(C#N)cc2F)ncc1-n1cc([C@H]2CC[C@H](CCN3CC[C@H]4[C@@H]3CCN4c3ccc(N4CCC(=O)NC4=O)cc3)CC2)nn1", "note": "(single isomer, unassigned) [P-507]", "values": [{"measurement": "LVL THP1 HTRF YMIN", "result": "−1.72", "unit": "%"}, {"measurement": "DC50", "result": 62.8, "unit": "nM"}]}
{"compound": "C[C@H](C#N)Nc1cc(-n2ncc3ccc(N4C[C@H]5C[C@@H]4CO5)nc32)ncc1-n1cc([C@H]2CC[C@H](CCN3CCC(c4ccc([C@@]5(F)CCC(=O)NC5=O)cc4)CC3)CC2)nn1", "note": "(single isomer, unassigned) [P-513]", "values": [{"measurement": "LVL THP1 HTRF YMIN", "result": 5.2, "unit": "%"}, {"measurement": "DC50", "result": 8, "unit": "nM"}]}
{"compound": "C[C@H](C#N)Nc1cc(-n2ncc3cc(C#N)c(N)nc32)ncc1-n1cc([C@H]2CC[C@H](CCN3CCN(c4ccc([C@@]5(C)CCC(=O)NC5=O)cc4)[C@H](C)C3)CC2)nn1", "note": "(stereo in doubt) [P-260]", "values": [{"measurement": "LVL THP1 HTRF YMIN", "result": 7.6, "unit": "%"}, {"measurement": "DC50", "result": 17, "unit": "nM"}]}
{"compound": "C[C@H](C#N)Nc1cc(-n2ncc3cc(C#N)cnc32)ncc1-n1cc([C@H]2CC[C@H](CCN3CCC(c4ccc([C@@]5(C)CCC(=O)NC5=O)cc4)C(F)C3)CC2)nn1", "note": "(stereo in doubt) [P-310]", "values": [{"measurement": "LVL THP1 HTRF YMIN", "result": 1.3, "unit": "%"}, {"measurement": "DC50", "result": 3.6, "unit": "nM"}]}
{"compound": "CC[C@H](C#N)Nc1cc(-n2ncc3cc(C#N)cnc32)ncc1-n1cc([C@H]2CC[C@H](CCN3CCN(c4ccc(C5CCC(=O)NC5=O)cc4)CC3)CC2)nn1", "note": "(stereo in doubt) [P-392]", "values": [{"measurement": "LVL THP1 HTRF YMIN", "result": 3.5, "unit": "%"}, {"measurement": "DC50", "result": 8.7, "unit": "nM"}]}
{"compound": "N#Cc1cnc2c(cnn2-c2cc(N[C@@H]3CCOC3)c(-n3cc([C@H]4CC[C@H](CCN5CCN(c6ccc(C7CCC(=O)NC7=O)cc6)CC5)CC4)nn3)cn2)c1", "note": "(stereo in doubt) [P-405]", "values": [{"measurement": "LVL THP1 HTRF YMIN", "result": 3.1, "unit": "%"}, {"measurement": "DC50", "result": 4.8, "unit": "nM"}]}
{"compound": "O=C1CCC(N2C(=O)c3ccc(NCCCNC(=O)C4CCC(NC(=O)c5cnc(Nc6ccc7ncsc7c6)cc5NC5CCCC5)CC4)cc3C2=O)C(=O)N1", "note": "(centres unmarked) [P-1]", "values": [{"measurement": "LVL THP1 HTRF YMIN", "result": 33.3, "unit": "%"}, {"measurement": "DC50", "result": 148, "unit": "nM"}]}
{"compound": "CC(F)(F)CNc1cc(-n2ncc3cc(C#N)cnc32)ncc1-n1cc(C2CCC(CCN3CCN(c4ccc(C5CCC(=O)NC5=O)cc4)CC3)CC2)nn1", "note": "(centres unmarked) [P-169]", "values": [{"measurement": "LVL THP1 HTRF YMIN", "result": 3.0, "unit": "%"}]}
{"compound": "CC(F)(F)CNc1cc(-n2ncc3cc(C#N)cnc32)ncc1-n1cc([C@H]2CC[C@H](CCN3CCN(c4ccc(C5CCC(=O)NC5=O)cc4)CC3)CC2)nn1", "note": "(some centres unmarked) [P-169]", "values": [{"measurement": "DC50", "result": 26, "unit": "nM"}]}
{"compound": "Cc1cc(C2CCC(=O)NC2=O)ccc1N1CCN(CC[C@H]2CC[C@H](NC(=O)c3cnc(-n4ncc5cc(C#N)c(N)nc54)cc3N[C@H](C)C#N)CC2)C[C@H]1C", "note": "(some centres unmarked) [P-170]", "values": [{"measurement": "LVL THP1 HTRF YMIN", "result": 0.9, "unit": "%"}, {"measurement": "DC50", "result": 14, "unit": "nM"}]}
